Data from paper PMC9782245, “Synthesis and Structural Optimization of 2,7,9-Trisubstituted purin-8-ones as FLT3-ITD Inhibitors” (International Journal of Molecular Sciences, 2022).
pIC50: −log10 of the molar value. “And” between values parts separate entries of the source, which are not always exact repeats. Equal entries are not always repeated. Where two headings read alike, the source gives them in different places.

Experiments:
MV4-11 cells = experiment: Resazurin-based viability assay, MV4-11; assay type: cell-based, Human; settings: for GI50: Homo sapiens, MV4-11, 72 h, resazurin, at least duplicate experiments
Description: (§1) In parallel to kinase assays, we measured the effect of compounds on the viability of cancer cell lines MV4-11 and K562 using a resazurin-based assay. MV4-11 is an AML cell line dependent on a constitutively activated FLT3-ITD kinase with high sensitivity to FLT3 inhibition, K562 cells (chronic myelogenous leukemia) are independent on FLT3.
(§2) Human cell lines were obtained from the European Collection of Authenticated Cell Cultures (K562) and Cell lines service (MV4-11) and were cultivated according to the provider’s instructions. Briefly, cells were maintained in RPMI-1640 (MV4-11) or DMEM (K562) supplemented with 10% fetal bovine serum, penicillin (100 U/mL), and streptomycin (0.1 mg/mL) at 37 °C in 5% CO2. For the viability assays, cells were treated in triplicate with six different doses of each compound for 72 h. After treatments, the resazurin (Sigma Aldrich, St. Louis, MO, USA) solution was added for 4 h, and the fluorescence of resorufin corresponding to live cells was measured at 544/590 nm (excitation/emission) using a Fluoroskan Ascent microplate reader (Labsystems). The GI50 value, the drug concentration lethal to 50% of the cells, was calculated from the dose-response curves that resulted from the assays.

K562 cells = experiment: Resazurin-based viability assay, K562; assay type: cell-based; settings: Homo sapiens, 72 h, at least duplicate experiments
Description: as §1, §2

CDK2/E = CDK2/E (Homo sapiens, UniProt P24941); experiment: Kinase inhibition assay CDK2/E; assay type: biochemical
Description: (§3) Newly prepared compounds 12–15 were assayed for inhibition of FLT3-ITD kinase as well as CDK4 and CDK2, known off-targets of structurally related compounds. We observed that CDK4 was sensitive to nearly all compounds with IC50 values in mid-nanomolar values.
(§4) CDK/cyclin complexes and FLT3 kinases were assayed as previously described. Protein kinase selectivity was evaluated at a single concentration (1 µM) by screening against 30 enzymes at Eurofins Discovery (France).

CDK4/D1 = CDK4/D1 (Homo sapiens, UniProt P11802); experiment: Kinase inhibition assay CDK4/D1; assay type: biochemical
Description: as §3, §4

FLT3-ITD = molecular target: T1, FLT3-ITD (Homo sapiens, UniProt P36888, ITD); experiment: Kinase inhibition assay FLT3-ITD; assay type: biochemical
T1 sequence (P36888 27-993): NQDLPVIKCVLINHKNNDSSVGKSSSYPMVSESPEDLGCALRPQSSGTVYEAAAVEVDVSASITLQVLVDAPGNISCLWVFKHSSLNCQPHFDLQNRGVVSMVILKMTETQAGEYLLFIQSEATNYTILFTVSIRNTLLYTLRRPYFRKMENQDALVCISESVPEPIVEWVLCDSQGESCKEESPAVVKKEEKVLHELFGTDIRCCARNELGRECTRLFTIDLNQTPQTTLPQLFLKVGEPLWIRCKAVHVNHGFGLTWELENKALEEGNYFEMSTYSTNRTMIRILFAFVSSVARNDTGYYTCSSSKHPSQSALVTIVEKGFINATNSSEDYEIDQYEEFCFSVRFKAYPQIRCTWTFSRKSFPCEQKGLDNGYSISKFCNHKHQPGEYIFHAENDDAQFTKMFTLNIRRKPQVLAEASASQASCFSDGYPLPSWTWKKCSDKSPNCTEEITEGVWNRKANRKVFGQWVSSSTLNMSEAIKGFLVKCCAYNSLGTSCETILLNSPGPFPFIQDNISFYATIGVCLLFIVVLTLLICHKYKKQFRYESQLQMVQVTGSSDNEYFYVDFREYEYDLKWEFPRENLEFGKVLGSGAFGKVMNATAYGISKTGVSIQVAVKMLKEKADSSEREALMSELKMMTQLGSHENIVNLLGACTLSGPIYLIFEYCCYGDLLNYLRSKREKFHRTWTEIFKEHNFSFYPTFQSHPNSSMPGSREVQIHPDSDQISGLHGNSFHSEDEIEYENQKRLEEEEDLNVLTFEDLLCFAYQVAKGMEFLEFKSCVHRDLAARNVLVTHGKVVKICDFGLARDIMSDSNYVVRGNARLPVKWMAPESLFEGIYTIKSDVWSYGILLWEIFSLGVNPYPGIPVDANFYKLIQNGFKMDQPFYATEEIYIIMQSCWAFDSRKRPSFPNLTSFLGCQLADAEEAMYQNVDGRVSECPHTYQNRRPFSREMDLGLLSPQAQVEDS
Description: as §3, §4

CDK4 = molecular target: T2, CDK4 (Homo sapiens, UniProt P11802); experiment: Kinase selectivity panel at 1 µM (Eurofins), CDK4; assay type: biochemical
T2 construct: purchased Eurofins Discovery (France)
Description: (§5) Three representative compounds (14d, 14e, and 15a) were profiled in a 1 µM concentration against 30 kinases that were selected as known off-targets of approved CDK4/6 inhibitors. […] Additional sensitive kinases include STK16, EphA1, MEKK2, SRC, and MER (≤10% of residual enzyme activities), which are not targets of the structurally similar CDK4/6 inhibitor, trilaciclib. We also screened compound 15a, an analogue of 14d, bearing isopropyl at position 7 of the purine instead of the methyl group. This change rapidly diminished the potency against CDK4 (dropped to 90% of residual enzyme activity), but the preference for FLT3 remained (1st rank) (Figure 2).
as §4

FLT3 = molecular target: T3, FLT3 (Homo sapiens, UniProt P36888); experiment: Kinase selectivity panel at 1 µM (Eurofins), FLT3; assay type: biochemical; settings: 30 kinases
T3 construct: purchased Eurofins Discovery (France)
T3 sequence (P36888 27-993): T1 sequence (P36888 27-993)
Description: as §5, §4

Src = molecular target: T4, Src (Homo sapiens, UniProt P12931); experiment: Kinase selectivity panel at 1 µM (Eurofins), Src; assay type: biochemical; settings: read-out: residual enzyme activity Src
T4 construct: purchased Eurofins Discovery (France)
Description: as §5, §4

[1] = at least duplicate experiments, read-out: IC50 CDK2/E
[2] = at least duplicate experiments, read-out: IC50 CDK4/D1
[3] = at least duplicate experiments, read-out: IC50 FLT3-ITD

T4 sequence (P12931 whole entry): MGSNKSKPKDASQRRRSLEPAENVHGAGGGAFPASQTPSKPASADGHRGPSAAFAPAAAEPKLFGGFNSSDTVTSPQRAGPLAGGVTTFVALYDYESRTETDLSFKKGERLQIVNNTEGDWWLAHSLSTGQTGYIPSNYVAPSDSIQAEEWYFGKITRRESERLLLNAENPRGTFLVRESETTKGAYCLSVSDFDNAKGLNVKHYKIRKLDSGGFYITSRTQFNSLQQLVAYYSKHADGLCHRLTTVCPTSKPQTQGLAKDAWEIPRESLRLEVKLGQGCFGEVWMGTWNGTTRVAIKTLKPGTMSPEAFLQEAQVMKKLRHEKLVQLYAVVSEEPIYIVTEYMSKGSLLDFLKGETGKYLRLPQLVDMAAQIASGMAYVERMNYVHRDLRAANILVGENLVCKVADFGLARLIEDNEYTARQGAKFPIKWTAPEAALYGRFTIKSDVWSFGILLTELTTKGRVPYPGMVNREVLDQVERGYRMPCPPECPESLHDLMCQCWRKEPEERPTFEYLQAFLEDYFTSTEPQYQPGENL
CDK4/D1, sequence (P11802 whole entry): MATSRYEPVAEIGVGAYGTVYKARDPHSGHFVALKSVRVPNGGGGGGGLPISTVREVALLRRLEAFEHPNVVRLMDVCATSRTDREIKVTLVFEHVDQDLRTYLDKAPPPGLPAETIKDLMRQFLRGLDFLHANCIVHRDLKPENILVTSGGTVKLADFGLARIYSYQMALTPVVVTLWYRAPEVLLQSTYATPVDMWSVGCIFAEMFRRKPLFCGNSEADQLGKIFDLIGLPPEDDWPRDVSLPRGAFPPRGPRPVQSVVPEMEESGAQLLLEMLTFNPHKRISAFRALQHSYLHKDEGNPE
CDK4/D1, sequence (P24385 whole entry partner): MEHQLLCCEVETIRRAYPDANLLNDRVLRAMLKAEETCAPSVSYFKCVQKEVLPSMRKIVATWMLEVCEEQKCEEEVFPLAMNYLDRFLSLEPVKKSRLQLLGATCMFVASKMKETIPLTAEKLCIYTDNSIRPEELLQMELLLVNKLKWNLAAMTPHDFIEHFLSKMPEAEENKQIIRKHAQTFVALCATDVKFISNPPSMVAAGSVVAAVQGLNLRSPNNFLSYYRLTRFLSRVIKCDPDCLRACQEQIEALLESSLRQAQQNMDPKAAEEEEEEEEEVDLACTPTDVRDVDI
T2 sequence (P11802 whole entry): as the sequence (P11802 whole entry) above
T2 sequence (P30281 whole entry partner): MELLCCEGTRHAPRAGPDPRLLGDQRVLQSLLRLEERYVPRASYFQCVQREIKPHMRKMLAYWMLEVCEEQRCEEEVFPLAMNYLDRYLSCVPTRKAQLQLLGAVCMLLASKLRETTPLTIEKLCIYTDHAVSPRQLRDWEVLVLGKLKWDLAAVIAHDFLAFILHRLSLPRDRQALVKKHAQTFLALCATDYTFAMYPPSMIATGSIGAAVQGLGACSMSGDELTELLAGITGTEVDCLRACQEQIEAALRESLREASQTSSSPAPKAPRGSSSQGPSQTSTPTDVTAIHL

Row | SMILES | GI50 (MV4-11 cells) | GI50 (K562 cells) | pIC50 (CDK2/E; [1]) | pIC50 (CDK4/D1; [2]) | pIC50 (FLT3-ITD; [3]) | CDK4 inhibition in selectivity panel (CDK4) | FLT3 inhibition in selectivity panel (FLT3) | remaining activity at 1 µM (Src) | remaining activity at 1 µM (CDK4; read-out: residual enzyme activity CDK4) | selectivity index (ratio for GI50's of K562 and MV4-11 cells) (MV4-11 cells; K562 / MV4-11) | pIC50 (CDK2/E; read-out: IC50 CDK2) | pIC50 (CDK4/D1; read-out: IC50 CDK4) | pIC50 (FLT3-ITD; read-out: IC50 FLT3)
1 | Cn1c(=O)n(C2CCCC2)c2nc(Nc3ccc(N4CCNCC4)cc3)ncc21 [14d] | 0.12 µM | 0.96 µM | < 6.00 and 5.74 | 6.80 | 7.08 | potent CDK4 and FLT3 inhibitors | potent CDK4 and FLT3 inhibitors | ≤ 10% |  |  |  |  | 
2 | CC(C)n1c(=O)n(C2CCCC2)c2nc(Nc3ccc(N4CCNCC4)cc3)ncc21 [15a, 9-cyclopentyl-7-isopropyl-2-((4-(piperazin-1-yl)phenyl)amino)-7,9-dihydro-8H-purin-8-one] | 0.05 µM | 0.58 µM | 5.30 | 5.72 | 7.43 |  | 1st rank | ≤ 10% | 90% |  |  |  | 
3 | Cn1c(=O)n(C2CCCCC2)c2nc(Nc3ccc(N4CCNCC4)cc3)ncc21 [14e] | 0.2 µM | 4.53 µM | 6.52 | 7.70 | 7.17 | potent CDK4 and FLT3 inhibitors | potent CDK4 and FLT3 inhibitors | ≤ 10% |  | > 20 | ≥ 6.52 | ≥ 6.52 | ≥ 6.52
